This test deals with T1, Prolyl endopeptidase FAP (Homo sapiens, UniProt Q12884).
T1 sequence (Q12884 whole entry): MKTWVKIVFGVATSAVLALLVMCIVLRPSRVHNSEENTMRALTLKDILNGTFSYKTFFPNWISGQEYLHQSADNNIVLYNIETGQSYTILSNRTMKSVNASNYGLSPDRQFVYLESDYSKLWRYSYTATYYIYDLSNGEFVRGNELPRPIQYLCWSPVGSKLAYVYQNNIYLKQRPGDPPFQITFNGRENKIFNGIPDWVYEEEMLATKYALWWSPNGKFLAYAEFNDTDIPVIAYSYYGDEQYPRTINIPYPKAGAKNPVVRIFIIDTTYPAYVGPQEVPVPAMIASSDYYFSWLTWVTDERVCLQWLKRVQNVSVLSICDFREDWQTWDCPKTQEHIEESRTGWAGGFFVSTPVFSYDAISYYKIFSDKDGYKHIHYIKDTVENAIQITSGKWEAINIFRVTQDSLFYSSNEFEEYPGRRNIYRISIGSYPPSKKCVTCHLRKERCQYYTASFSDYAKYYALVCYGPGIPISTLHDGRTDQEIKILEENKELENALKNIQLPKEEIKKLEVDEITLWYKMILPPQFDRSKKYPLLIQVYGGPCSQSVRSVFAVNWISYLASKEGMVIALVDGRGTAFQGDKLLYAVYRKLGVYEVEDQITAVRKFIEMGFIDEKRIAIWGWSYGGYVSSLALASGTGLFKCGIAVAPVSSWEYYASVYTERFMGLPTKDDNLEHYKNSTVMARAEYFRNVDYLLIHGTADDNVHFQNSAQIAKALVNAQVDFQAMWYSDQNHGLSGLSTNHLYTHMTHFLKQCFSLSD
Kind of test: hFAP Binding Assay. Conditions: for kon: read-out: kon (M-1-s-1).

Our source for the koff and kon values is BindingDB's records for patent US20230312550 (Astrazeneca, 2023).

One may read the koff as a measure of how fast the partners let go of each other. Read a low koff as slow dissociation. For orientation: kon means the rate constant with which the complex forms.

Procedure: Table 1: Compounds were tested in a direct binding assay using 8K surface plasmon resonance biosensor (GE Healthcare) at 20° C. Immobilization of hFAP (M39-A757) on a CMD200M sensor chip (Xantec) was performed using standard amine coupling procedure in immobilization buffer (10 mM HEPES, 150 mM NaCl, 0.05% Tween20, pH 7.4). The surface was washed with 10 mM NaOH, 1M NaCl before being activated with EDC/NHS (GE Healthcare), followed by immobilization of hFAP (in 10 mM Acetate pH 5.0). Finally, the surface was deactivated by ethanolamine. Immobilization levels of hFAP were around 4000-6000 RU. The reference spot was treated as described, omitting the injection of hFAP. Compound concentration series were injected over the immobilized protein in increasing concentrations (2-500 nM) using single cycle kinetics in running buffer (20 mM TRIS, 150 mM NaCl, 0.05% Tween20, 1% DMSO, pH 7.4).

Consider `N#C[C@@H]1CSCN1C(=O)CNC(=O)c1ccnc2ccc(N3CC4(COC4)C3)cc12` [US20230312550, Example 166], for which the koff was determined as 4.9e-05 s⁻¹ and the kon is 2.2e+06 M⁻¹ s⁻¹.
As to `N#C[C@@H]1CSCN1C(=O)CNC(=O)c1ccnc2ccc(N3CCC[C@H]3C(F)(F)F)cc12` [US20230312550, Example 56], the koff worked out at 0.00011 s⁻¹ and the kon amounted to 540000 M⁻¹ s⁻¹.
In the case of `N#C[C@@H]1CSCN1C(=O)CNC(=O)c1ccnc2ccc(N3C4CCCC3COC4)cc12` [US20230312550, Example 86], the koff amounted to 5.8e-05 s⁻¹ and the kon came out at 730000 M⁻¹ s⁻¹.
As to `C[C@@H]1CN(c2ccc3nccc(C(=O)NCC(=O)N4CSC[C@H]4C#N)c3c2)C[C@H](C)[C@@H]1O` [US20230312550, Example 7], the off-rate constant (koff) was 7.5e-05 s⁻¹ and the kon was 740000 M⁻¹ s⁻¹.
For the compound `N#C[C@@H]1CSCN1C(=O)CNC(=O)c1ccnc2ccc(N3CCCC[C@@H](F)C3)cc12` [US20230312550, Example 59], the koff amounted to 0.00019 s⁻¹ and the kon was 2.6e+06 M⁻¹ s⁻¹.
Taken in the same sequence, the figures for `N#C[C@@H]1CSCN1C(=O)CNC(=O)c1c(F)cnc2ccc(N3CCOCC3)cc12` [US20230312550, Example 2] were 0.0038 s⁻¹ and 410000 M⁻¹ s⁻¹.
For `Cc1ccn(-c2ccc3nccc(C(=O)NCC(=O)N4CSC[C@H]4C#N)c3c2)c1` [US20230312550, Example 121], the koff was 1.6e-05 s⁻¹ and the kon stood at 1.1e+06 M⁻¹ s⁻¹.
With `N#C[C@@H]1CSCN1C(=O)CNC(=O)c1ccnc2ccc(N3CCO[C@@H](C(F)(F)F)C3)cc12` [US20230312550, Example 73], the koff was 0.00016 s⁻¹ and the kon is 2.4e+06 M⁻¹ s⁻¹.
`N#C[C@@H]1CSCN1C(=O)CNC(=O)c1ccnc2ccc(N3CCOCC34CCC4)cc12` [US20230312550, Example 104]: the koff stood at 6.1e-05 s⁻¹ and the kon came to 3e+06 M⁻¹ s⁻¹.
For the compound `N#C[C@@H]1CSCN1C(=O)CNC(=O)c1ccnc2ccc(N3CC(F)C3)cc12` [US20230312550, Example 21], the koff was found to be 0.0002 s⁻¹ and the kon came to 3e+06 M⁻¹ s⁻¹.
Take `CC1(C)CCN(c2ccc3nccc(C(=O)NCC(=O)N4CSC[C@H]4C#N)c3c2)C1` [US20230312550, Example 48]: the koff turned out to be 8.9e-05 s⁻¹ and the kon amounted to 1.4e+06 M⁻¹ s⁻¹.
For `N#C[C@@H]1CSCN1C(=O)CNC(=O)c1ccnc2ccc(N3CC(F)(C4CC4)C3)cc12` [US20230312550, Example 31] the same measures were 0.00024 s⁻¹ and 9.7e+06 M⁻¹ s⁻¹.
For `Cn1nccc1-c1ccc2nccc(C(=O)NCC(=O)N3CSC[C@H]3C#N)c2c1` [US20230312550, Example 174] the same measures were 0.00024 s⁻¹ and 1.9e+06 M⁻¹ s⁻¹.
For `N#C[C@@H]1CSCN1C(=O)CNC(=O)c1ccnc2ccc(N3C[C@H](F)[C@@H](F)C3)cc12` [US20230312550, Example 213] the same measures were 0.00017 s⁻¹ and 4.4e+06 M⁻¹ s⁻¹.
Take `N#C[C@@H]1CSCN1C(=O)CNC(=O)c1ccnc2c(Cl)cc(N3CCOCC3)cc12` [US20230312550, Example 180]: the koff is 0.00095 s⁻¹ and the kon stood at 560000 M⁻¹ s⁻¹.
On to `CC(C)OC1CCN(c2ccc3nccc(C(=O)NCC(=O)N4CSC[C@H]4C#N)c3c2)CC1` [US20230312550, Example 43], for which the koff stood at 1.9e-05 s⁻¹ and the kon came to 3.2e+06 M⁻¹ s⁻¹.
As for `C[C@H]1CCN(c2ccc3nccc(C(=O)NCC(=O)N4CSC[C@H]4C#N)c3c2)C1` [US20230312550, Example 54], the koff was 0.00023 s⁻¹ and the kon is 6.2e+06 M⁻¹ s⁻¹.
As to `N#C[C@@H]1CSCN1C(=O)CNC(=O)c1ccnc2ccc(-c3ccc(F)cn3)cc12` [US20230312550, Example 125], the koff stood at 0.00014 s⁻¹ and the kon turned out to be 3e+06 M⁻¹ s⁻¹.
As for `N#C[C@@H]1CSCN1C(=O)CNC(=O)c1ccnc2ccc(N3CC4CCC(C3)O4)cc12` [US20230312550, Example 79], the koff is 0.00012 s⁻¹ and the kon worked out at 1.6e+07 M⁻¹ s⁻¹.
As to `CC(=O)N1CC2(C1)CN(c1ccc3nccc(C(=O)NCC(=O)N4CSC[C@H]4C#N)c3c1)C2` [US20230312550, Example 184], the koff stood at 1.4e-05 s⁻¹ and the kon was determined as 950000 M⁻¹ s⁻¹.
Turning to `N#C[C@@H]1CSCN1C(=O)CNC(=O)c1ccnc2ccc(N3CCO[C@H](C(F)(F)F)C3)cc12` [US20230312550, Example 74], the koff turned out to be 0.00016 s⁻¹ and the kon was 1.1e+06 M⁻¹ s⁻¹.
As to `N#C[C@@H]1CSCN1C(=O)CNC(=O)c1ccnc2ccc(N3CCCCO3)cc12` [US20230312550, Example 1], the koff is 0.00014 s⁻¹ and the on-rate (kon) was determined as 730000 M⁻¹ s⁻¹.
For `CC1(CC(F)F)CN(c2ccc3nccc(C(=O)NCC(=O)N4CSC[C@H]4C#N)c3c2)C1` [US20230312550, Example 133], the koff stood at 7.3e-05 s⁻¹ and the association rate constant (kon) turned out to be 1.2e+06 M⁻¹ s⁻¹.
For the compound `CCC1(OC)CCN(c2ccc3nccc(C(=O)NCC(=O)N4CSC[C@H]4C#N)c3c2)CC1` [US20230312550, Example 191], the dissociation rate constant (koff) was found to be 3.3e-05 s⁻¹ and the on-rate constant (kon) stood at 1.5e+06 M⁻¹ s⁻¹.
As for `Cc1cc2nccc(C(=O)NCC(=O)N3CSC[C@H]3C#N)c2cc1N1CCOCC1` [US20230312550, Example 10], the koff was found to be 5.6e-05 s⁻¹ and the kon is 370000 M⁻¹ s⁻¹.
For `CO[C@@H]1CCN(c2ccc3nccc(C(=O)NCC(=O)N4CSC[C@H]4C#N)c3c2)C1` [US20230312550, Example 161], the koff came out at 0.00028 s⁻¹ and the association rate constant (kon) was 1.4e+07 M⁻¹ s⁻¹.
For `N#C[C@@H]1CSCN1C(=O)CNC(=O)c1ccnc2ccc(N3CC(CCC(F)(F)F)C3)cc12` [US20230312550, Example 142], the koff worked out at 5.5e-05 s⁻¹ and the kon was 1.8e+06 M⁻¹ s⁻¹.
As to `N#C[C@@H]1CSCN1C(=O)CNC(=O)c1ccnc2ccc(N3CC4(CC(C(F)(F)F)C4)C3)cc12` [US20230312550, Example 150], the off-rate (koff) is 4.3e-05 s⁻¹ and the kon was 280000 M⁻¹ s⁻¹.
With `C[C@@H]1COC[C@H](C)N1c1ccc2nccc(C(=O)NCC(=O)N3CSC[C@H]3C#N)c2c1` [US20230312550, Example 90], the koff was 0.0001 s⁻¹ and the kon was 480000 M⁻¹ s⁻¹.
As to `CC1CN(c2ccc3nccc(C(=O)NCC(=O)N4CSC[C@H]4C#N)c3c2)C1` [US20230312550, Example 25], the koff worked out at 0.00011 s⁻¹ and the kon came to 1.4e+06 M⁻¹ s⁻¹.
`CC1(C)OCCN(c2ccc3nccc(C(=O)NCC(=O)N4CSC[C@H]4C#N)c3c2)C1=O` [US20230312550, Example 16]: the koff was determined as 4.1e-05 s⁻¹ and the kon came to 740000 M⁻¹ s⁻¹.
`N#C[C@@H]1CSCN1C(=O)CNC(=O)c1ccnc2ccc(N3CCCCC3)cc12` [US20230312550, Example 32]: the koff worked out at 2.9e-05 s⁻¹ and the on-rate (kon) was 1.3e+06 M⁻¹ s⁻¹.
Taken in the same sequence, the figures for `Cc1ncccc1-c1ccc2nccc(C(=O)NCC(=O)N3CSC[C@H]3C#N)c2c1` [US20230312550, Example 128] were 0.00066 s⁻¹ and 5.4e+06 M⁻¹ s⁻¹.
Take `C[C@H]1CCN(c2ccc3nccc(C(=O)NCC(=O)N4CSC[C@H]4C#N)c3c2)CCO1` [US20230312550, Example 62]: the koff came to 8.5e-05 s⁻¹ and the kon is 710000 M⁻¹ s⁻¹.
For `CC(C)n1nccc1-c1ccc2nccc(C(=O)NCC(=O)N3CSC[C@H]3C#N)c2c1` [US20230312550, Example 197] the same measures were 6.6e-05 s⁻¹ and 88000 M⁻¹ s⁻¹.
Taken in the same sequence, the figures for `N#C[C@@H]1CSCN1C(=O)CNC(=O)c1ccnc2ccc(-c3cncnc3)cc12` [US20230312550, Example 127] were 0.002 s⁻¹ and 6e+06 M⁻¹ s⁻¹.
Consider `C[C@@H]1CCCN1c1ccc2nccc(C(=O)NCC(=O)N3CSC[C@H]3C#N)c2c1` [US20230312550, Example 211], for which the off-rate (koff) turned out to be 0.0002 s⁻¹ and the kon came to 5.9e+06 M⁻¹ s⁻¹.
In the case of `CC1(C)CCCN(c2ccc3nccc(C(=O)NCC(=O)N4CSC[C@H]4C#N)c3c2)C1=O` [US20230312550, Example 15], the koff amounted to 4.6e-05 s⁻¹ and the on-rate (kon) amounted to 490000 M⁻¹ s⁻¹.
For `N#C[C@@H]1CSCN1C(=O)CNC(=O)c1ccnc2ccc(N3CCCC(F)(F)C3)cc12` [US20230312550, Example 36], the koff stood at 9e-05 s⁻¹ and the kon turned out to be 3e+06 M⁻¹ s⁻¹.
Take `C[C@@H]1CCN(c2ccc3nccc(C(=O)NCC(=O)N4CSC[C@H]4C#N)c3c2)C1` [US20230312550, Example 55]: the koff came out at 0.00025 s⁻¹ and the kon was 6.7e+06 M⁻¹ s⁻¹.
For `N#C[C@@H]1CSCN1C(=O)CNC(=O)c1ccnc2ccc(N3C[C@@H]4[C@H](C3)[C@H]4C(F)(F)F)cc12` [US20230312550, Example 208], the koff amounted to 0.00026 s⁻¹ and the kon was determined as 5.6e+06 M⁻¹ s⁻¹.
As to `CS(=O)(=O)C[C@@H]1CN(c2ccc3nccc(C(=O)NCC(=O)N4CSC[C@H]4C#N)c3c2)CCO1` [US20230312550, Example 94], the koff was 9.9e-05 s⁻¹ and the kon was determined as 1.9e+06 M⁻¹ s⁻¹.
As to `N#C[C@@H]1CSCN1C(=O)CNC(=O)c1ccnc2ccc(N3C[C@@H](F)[C@H](F)C3)cc12` [US20230312550, Example 214], the koff turned out to be 9.2e-05 s⁻¹ and the kon is 2.9e+06 M⁻¹ s⁻¹.
Take `C[C@H]1CC(F)(F)CCN1c1ccc2nccc(C(=O)NCC(=O)N3CSC[C@H]3C#N)c2c1` [US20230312550, Example 44]: the off-rate constant (koff) came out at 7.2e-05 s⁻¹ and the kon was determined as 1.7e+06 M⁻¹ s⁻¹.
